# Columns and labels:
# PDHK1 [1] = target: T1, PDHK1 (Homo sapiens, UniProt Q15118); settings: cited from earlier work
# T1 construct: made in house; host or cells: Escherichia coli BL21(DE3)
# Hep3B cells = assay: MTT cell viability assay; type: cell-based, human; settings: 3 μM, 24 h
# A549 = system: A549; set-up: method as in PMID 19952458; settings: read-out: IC50 against human cancer cell line; cited from earlier work
# PDHK1-4 = PDHK1-4 protein expression (western blot) in DLD-1 cells; type: cell-based, human; settings: serum-free medium, 4 h
# Protocol: Figure 2 Hu.A reduced the PDHK1 activity and promoted oxidative phosphorylation (OXPHOS) in DLD-1 cells. (A) In vitro PDHK1 kinase assay was performed. (B, C) DLD-1 cells were treated with Hu.A in serum-free medium for 4 h. The levels of phosphorylated pyruvate dehydrogenase E1α subunit (PDHA) (B), and PDHK1-4 (C) were analyzed using western blot assay. PDHA (B) and GAPDH (C) were used as loading controls. (D) The intensity of bands (PDHK1-4/GAPDH) from three independent experiments was measured and indicated by mean ± SD. (E) DLD-1 cells were treated with Hu.A in serum-free medium for 6 h. O2 consumption rate was measured by using commercially available Oxygen Consumption Rate Assay Kit. (F) Lactate production was measured by lactate fluorometric assay kit (right panel). The data are shown as mean ± SD, respectively. **, p < 0.01 compared with control.
# Western blotting assay was carried out as described previously. Briefly, equal amounts (20 μg) of the cell lysates were separated by sodium dodecyl sulfate–polyacrylamide gel electrophoresis and were transferred onto the nitrocellulose membrane (Hybond ECL; GE Healthcare). The membrane was incubated with specific antibodies. The bands of the target proteins were detected using ECL Plus reagent and ImageQuant LAS 4000 (GE Healthcare, Menlo Park, CA, USA).
# [2] = Blood biochemistry of tumor-bearing mice; type: in vivo, C57BL/6 mice; settings: serum; for Creatinine: below limit of detection; for BUN: mean ± SD (control 8.6 ± 0.8); for ALT: mean ± SD (control 14.8 ± 2.5); for AST: mean ± SD (control 79.8 ± 35.3)
# Protocol: The blood sera were collected from the retro-orbital plexus of tumor-bearing mice treated with Hu.A. The levels of AST, ALT, BUN, and creatinine were analyzed by a commercial service provided by Green Cross Co. (Yongin, Korea).
# GST-PDHK1 = target: T2, GST-PDHK1 (Homo sapiens, UniProt Q15118); assay: In vitro PDHK kinase assay (GST-PDHK1, recombinant PDHA, western blot); type: biochemical; settings: phosphorylation of recombinant PDHA by western blot
# T2 construct: expressed in transfected cells; host or cells: HEK293T
# Protocol: The kinase assay of PDHK1 was carried out as described previously. Briefly, HEK293T cells, transfected with GST-PDHK1 construct, were lysed, and the lysate was incubated with Glutathione Sepharose 4B beads (Amersham Biosciences, Uppsala, Sweden). The beads were washed and recombinant PDHA was added and incubated for 5 min at 30 °C in the kinase buffer. The phosphorylation of PDHA was analyzed by western blot analysis.
# PDHK1 [3] = target: T1, PDHK1; assay: ATP-binding assay; settings: His-tagged PDHK1 on Ni-NTA beads, 37 °C
# Protocol: The cloned PDHK1 was expressed in Escherichia coli BL21(DE3). The overexpressed protein was purified using affinity chromatography and gel filtration chromatography. The purified His-tagged PDHK1 was bound to Ni-NTA beads in binding buffer (20 mM HEPES-K^+ (pH 7.2) and 0.05% BSA) at 4 °C. The Ni-NTA beads with bound His-tagged PDHK1 were washed with the binding buffer followed by incubation with [α-^32P]ATP, ATP, and Hu.A at 37 °C. The beads were then washed with wash buffer (PBS). The bead-bound PDHK1 protein was achieved by 250 mM imidazole, and its radioactivity was detected by liquid scintillation counting.
# MDA-MB-231 cells = assay: MTT cell viability assay; type: cell-based, human; settings: 3 μM, 24 h
# PDHK and PDC E2 subunit = target: T3, PDHK and PDC E2 subunit (Homo sapiens, UniProt Q15118); assay: PDC subunits and PDHK binding assay; settings: 500 μM Hu.A, GST-PDHK1 pull-down, HEK293T lysate
# T3 construct: expressed in transfected cells; host or cells: HEK293T (GST-PDHK1 transfected; E2 endogenous from HEK293T whole cell lysate)
# Protocol: HEK293T cells, transfected with GST-PDHK1 construct, were lysed and incubated with Glutathione Sepharose 4B beads. The beads were washed and HEK293T whole cell lysate was added with/without 500 μM of Hu.A and the samples were analyzed by western blot analysis.
# HL-60 = system: HL-60; set-up: method as in PMID 19952458; settings: read-out: IC50 against human cancer cell line; cited from earlier work
# HSC-2 = system: HSC-2; set-up: method as in PMID 19952458; settings: read-out: IC50 against human cancer cell line; cited from earlier work
# DLD-1 cells [4] = assay: MTT cell viability assay; type: cell-based, human
# Protocol: (§1) The cytotoxic effect of Hu.A was confirmed using a MTT assay. Briefly, DLD-1 cells (10^5 cells per well) were seeded in a 24-well plate and incubated overnight. The cells were then shifted to serum-free media and treated with Hu.A. MTT solution (2 mg/mL) was then added to the cells. The absorbance of formazan crystals formed were measured using a Spectramax M2 microplate reader (Molecular Devices, Sunnyvale, CA, USA) at 540 nm.
# LLC cells = assay: MTT cell viability assay; type: cell-based, murine; settings: 3 μM, 24 h, serum free medium
# Protocol: as §1
# Supplementary materials Huzhangoside A Suppresses Tumor
# Growth through Inhibition of Pyruvate
# Dehydrogenase Kinase Activity
# Choong-Hwan Kwak, Jung-Hee Lee, Eun-Yeong Kim, Chang Woo Han, Keuk-Jun Kim, Hanna Lee, MyoungLae Cho, Se Bok Jang, Cheorl-Ho Kim, Tae-Wook Chung and Ki-Tae Ha
# Figure S1. Hu.A inhibited cell viability and phosphorylation of PDHA in LLC cells. (A) The LLC cells were treated with indicated concentrations of Hu.A in serum free medium for 24 h and MTT assay was performed. The data was indicated as mean ± SD. * p < 0.05 and *** p < 0.001 compared with the control. (B) In serum free condition, the LLC cells were treated with indicated concentrations of Hu.A for 4 h. The levels of phosphor-PDHA and total PDHA were analyzed by Western blotting assay. (C) Schematic diagram of the mechanisms of Hu.A-mediated apoptosis was shown. The red circle and white P indicated phosphates. […]
# HT-29 cells = assay: MTT cell viability assay; type: cell-based, human; settings: 3 μM, 24 h
# LLC cell allograft = assay: LLC tumor allograft in C57BL/6 mice; type: in vivo
# Protocol: LLC cells (5 × 10^5 cells/100 μL PBS) were injected into the dorsal subcutaneous skin of C57BL/6 mice (n = 8 mice per group). The control (untreated) group and Hu.A-treated groups were administered 0 mg/kg and 0.1 mg/kg, 0.5 mg/kg, and 1 mg/kg of Hu.A in 100 μL PBS/20 g via intraperitoneal (i.p.) injection for 14 days, respectively. The mice were killed 14 days after inoculation of LLC cells and the tumors were seceded from the mice and analyzed. The volumes of LLC cell derived-tumors were calculated using the formula ((length × width^2)/2).
# For immunohistochemical analysis, the tumor tissues were fixed with 3.7% formalin in PBS and embedded in paraffin. The paraffin sections were incubated with a primary antibody against the Ki-67, a cell proliferation marker, and visualized via Dako EnVision kit (Dako, Jena, Germany). The sections were counterstained with hematoxylin.
# DLD-1 cells [5] = assay: Lactate production assay; type: cell-based, human
# Protocol: Lactate in the cell culture medium was analyzed by a lactate fluorometric assay kit (Biovision, Milpitas, CA, USA) and measured using the Spectramax M2 microplate reader at 570 nm.
# DLD-1 cells [6] = assay: O2 consumption assay; type: cell-based, human; settings: serum-free medium, 6 h
# Protocol: The O2 consumption rate was determined using the Oxygen Consumption Rate Assay Kit (Cayman Chemical, Ann Arbor, MI, USA) following the manufacturer’s protocol. The fluorescence of the oxygen probe was measured using the Spectramax M2 microplate reader at wavelengths of 380/650 nm.
# HSC-4 = system: HSC-4; set-up: method as in PMID 19952458; settings: read-out: IC50 against human cancer cell line; cited from earlier work
# tumor growth = settings: JX06 is ref 12; cited from earlier work
# PDHK1 [7] = target: T1, PDHK1; settings: read-out: IC50 for inhibiting PDHK1 activity; cited from earlier work
# T1 sequence (Q15118 29-436): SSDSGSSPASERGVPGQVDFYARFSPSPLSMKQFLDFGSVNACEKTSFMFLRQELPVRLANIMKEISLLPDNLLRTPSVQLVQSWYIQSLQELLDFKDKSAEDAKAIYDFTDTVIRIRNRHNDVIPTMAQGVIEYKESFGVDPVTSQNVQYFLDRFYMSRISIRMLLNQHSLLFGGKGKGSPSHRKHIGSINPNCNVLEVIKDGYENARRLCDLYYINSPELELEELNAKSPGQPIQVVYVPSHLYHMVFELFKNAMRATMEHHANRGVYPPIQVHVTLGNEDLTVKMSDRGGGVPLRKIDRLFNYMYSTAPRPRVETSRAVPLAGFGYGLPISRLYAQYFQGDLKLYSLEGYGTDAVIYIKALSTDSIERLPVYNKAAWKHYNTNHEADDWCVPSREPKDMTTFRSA
# T3 sequence (Q15118 29-436): as above
# T3 sequence (P10515 87-647 partner): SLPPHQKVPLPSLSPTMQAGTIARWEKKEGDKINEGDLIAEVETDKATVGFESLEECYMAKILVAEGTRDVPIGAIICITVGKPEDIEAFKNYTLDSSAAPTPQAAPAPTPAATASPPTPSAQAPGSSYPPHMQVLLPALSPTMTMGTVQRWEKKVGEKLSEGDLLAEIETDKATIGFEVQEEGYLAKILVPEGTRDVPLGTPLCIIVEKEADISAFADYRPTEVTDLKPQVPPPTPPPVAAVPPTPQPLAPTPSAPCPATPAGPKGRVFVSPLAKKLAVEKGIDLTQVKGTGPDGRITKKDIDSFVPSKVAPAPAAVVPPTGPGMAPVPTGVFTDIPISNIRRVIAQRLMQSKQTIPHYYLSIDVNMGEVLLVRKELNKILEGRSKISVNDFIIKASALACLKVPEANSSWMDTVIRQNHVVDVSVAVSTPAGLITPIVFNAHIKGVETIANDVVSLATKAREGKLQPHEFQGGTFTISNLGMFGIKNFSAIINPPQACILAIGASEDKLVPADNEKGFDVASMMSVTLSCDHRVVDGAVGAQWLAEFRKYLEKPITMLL
# T2 sequence (Q15118 29-436): as the sequence (Q15118 29-436) above
compound,measurement,setting,value
C[C@@H]1C[C@H]2O[C@@H]2/C=C\C=C\C(=O)Cc2c(Cl)c(O)cc(O)c2C(=O)O1 [radicicol],concentration administered to suppress the intracellular PDHK1 activity,PDHK1 [1],10 µM
"CC1OC(OC2C(OC3CCC4(C)C(CCC5(C)C4CC=C4C6CC(C)(C)CCC6(C(=O)O)CCC45C)C3(C)C)OCC(O)C2O)C(O)C(OC2OCC(O)C(O)C2O)C1O (stereo not drawn) [Hu.A, Huzhangoside A]",cytotoxic effect,Hep3B cells,more than 80%
same,IC50,A549,1500 nM
same,protein levels of PDHK isozymes (PDHK1-4),PDHK1-4,did not significantly change
same,Creatinine,[2]; 0.1 mg/kg i.p.,< 0.17 mg/dL
same,BUN,[2]; 0.1 mg/kg i.p.,8.8 ± 0.9 mg/dL
same,ALT,[2]; 0.1 mg/kg i.p.,16.7 ± 2.5 U/L
same,AST,[2]; 0.1 mg/kg i.p.,94.5 ± 41.0 U/L
same,Creatinine,[2]; 0.5 mg/kg i.p.,< 0.17 mg/dL
same,BUN,[2]; 0.5 mg/kg i.p.,8.9 ± 0.6 mg/dL
same,ALT,[2]; 0.5 mg/kg i.p.,19.2 ± 5.6 U/L
same,AST,[2]; 0.5 mg/kg i.p.,87.5 ± 33.8 U/L
same,Creatinine,[2]; 1 mg/kg i.p.,< 0.17 mg/dL
same,BUN,[2]; 1 mg/kg i.p.,8.4 ± 1.0 mg/dL
same,ALT,[2]; 1 mg/kg i.p.,19.6 ± 3.1 U/L
same,AST,[2]; 1 mg/kg i.p.,95.2 ± 43.1 U/L
same,kinase activity of GST-PDHK1,GST-PDHK1,significantly inhibited
same,[α-32P]ATP-binding activity of PDHK1,PDHK1 [3],decreased
same,cytotoxic effect,MDA-MB-231 cells,more than 80%
same,binding of PDHK and PDC E2 subunit,PDHK and PDC E2 subunit,did not significantly affect
same,IC50,HL-60,2300 nM
same,IC50,HSC-2,5700 nM
same,cytotoxic effect,"DLD-1 cells [4]; 3 μM, 24 h",more than 80%
same,cytotoxic effect of Hu.A after MitoTEMPO pre-treatment,"DLD-1 cells [4]; DLD-1, MitoTEMPO 50 μM 1 h pre-treatment, then 3 μM Hu.A 6 h, serum-free",significantly reduced
same,cytotoxic effect,LLC cells,more than 80%
same,cytotoxic effect,HT-29 cells,more than 80%
same,"levels of cleaved forms of caspase-3, -9, and PARP in tumor tissues","LLC cell allograft; 1 mg/kg, western blot",increased
same,growth of the allograft LLC cells (tumor volume and weight),"LLC cell allograft; 0.1, 0.5 and 1 mg/kg/day i.p., dose-dependent",significantly suppressed
same,staining of Ki-67 in tumor tissues,"LLC cell allograft; immunohistochemistry, Hu.A-treated mice",reduced
same,phosphor-PDHA levels in tumor tissues,"LLC cell allograft; western blot, Hu.A-treated mice",markedly decreased
same,secretory lactate levels in media,DLD-1 cells [5],reduced
same,O2 consumption rate,DLD-1 cells [6],increased
same,IC50,HSC-4,11700 nM
S=C(SSC(=S)N1CCOCC1)N1CCOCC1 [JX06],concentration required for inhibition of tumor growth in in vivo experiments,tumor growth,40 to 80 mg/kg
same,IC50,PDHK1 [7],49 nM
same,concentration administered to suppress the intracellular PDHK1 activity,PDHK1 [1],10 µM

# From PMC6562422, “Huzhangoside A Suppresses Tumor Growth through Inhibition of Pyruvate Dehydrogenase Kinase Activity” (Cancers, 2019)
